Test results reported in US9114150B2, “Stable aqueous compositions comprising bioactive creatine species” (JHO INTELLECTUAL PROPERTY HOLDINGS, LLC, priority 2008, dated 2015).

Assay: Stability study of aqueous solutions (0.250 mg/mL) assayed by HPLC at periodic intervals for 60 days
Assay type: physicochemical
Conditions: for Creatinine in solution (HPLC assay): 0.250 mg/mL; for Fraction converted to creatinine: aqueous media; for Prepared substance remaining in solution (HPLC assay): buffer, 0 days, 0.25 mg/mL
Experimental: Creatinol-O-Phospate Solution: A batch of pure water or distilled water is put in a container, adjusted to a prescribed of pH 3 or pH 7 with a normal buffer and buffer salts, and heated to a temperature of 20° to 99° C. To 100 parts by weight of the warm water is added 0.1 to 0.3 parts by weight of the Creatinol-O-Phophate (COP) which is dissolved by stirring. The pH is not particularly limited but is desirably not higher than pH 12 taking the physiological influences of the gastrointestinal tracts into consideration.
They were stored at room temperature (25 C, 77 F), at refrigerator temperature (4 C, 39 F), and at elevated temperature (40 C, 104 F) in glass scintillation vials. These samples were assayed by HPLC at periodic intervals for 60 days and evaluated relative to Standard regression curves of known concentrations of the actives and of creatinine, the primary known degradation product of creatine.

[1] = prepared at pH 3.0, 25° C., 39 Days
[2] = prepared at pH 3.0, 25° C., 60 days
[3] = prepared at pH 3.0, 25° C., INITIAL
[4] = prepared at pH 3.0, 40° C., 39 Days
[5] = prepared at pH 3.0, 40° C., 60 days
[6] = prepared at pH 3.0, 40° C., INITIAL
[7] = prepared at pH 7.0, 40° C., 39 Days
[8] = prepared at pH 7.0, 40° C., 60 days
[9] = prepared at pH 7.0, 40° C., INITIAL

CN(CC(=O)O)C(=N)N.O [Creatine Monohydrate, reference compound]
Creatinine in solution (HPLC assay) (pH 3.0, 25° C., 39 Days): 0.154 mg/mL
Creatinine in solution (HPLC assay) (pH 3.0, 25° C., 3 day): 0.026 mg/mL
Creatinine in solution (HPLC assay) (pH 3.0, 25° C., 10 days): 0.072 mg/ml mg/mL
Creatinine in solution (HPLC assay) (pH 3.0, 25° C., 21 days): 0.111 mg/mL
Creatinine in solution (HPLC assay) (pH 3.0, 25° C., 60 days): 0.167 mg/mL
Creatinine in solution (HPLC assay) (pH 3.0, 25° C., INITIAL): 0.000 mg/mL
Creatinine in solution (HPLC assay) (pH 3.0, 40° C., 39 Days): 0.186 mg/mL
Creatinine in solution (HPLC assay) (pH 3.0, 40° C., 3 day): 0.125 mg/Ml mg/mL
Creatinine in solution (HPLC assay) (pH 3.0, 40° C., 10 days): 0.177 mg/ml mg/mL
Creatinine in solution (HPLC assay) (pH 3.0, 40° C., 21 days): 0.186 mg/mL
Creatinine in solution (HPLC assay) (pH 3.0, 40° C., 60 days): 0.187 mg/mL
Creatinine in solution (HPLC assay) (pH 3.0, 40° C., INITIAL): 0.000 mg/mL
Creatinine in solution (HPLC assay) (pH 7.0, 40° C., 39 Days): 0.068 mg/mL
Creatinine in solution (HPLC assay) (pH 7.0, 40° C., 3 day): 0.008 mg/mL
Creatinine in solution (HPLC assay) (pH 7.0, 40° C., 60 days): 0.101 mg/mL
Creatinine in solution (HPLC assay) (pH 7.0, 40° C., INITIAL): 0.000 mg/mL
Fraction converted to creatinine (39 days, pH 3.0, stored at 40° C.): 74%
Fraction converted to creatinine (39 days, pH 7.0, stored at 40° C.): 28%
Fraction converted to creatinine (pH 3.0, stored at 4° C.): 62%
pH of the solution [1]: 3.4
pH of the solution [2]: 3.4
pH of the solution [3]: 3.0
pH of the solution [4]: 3.4
pH of the solution [5]: 3.4
pH of the solution [6]: 3.0
pH of the solution [7]: 7.4
pH of the solution [8]: 7.4
pH of the solution [9]: 7.0

CN(CCOP(=O)(O)O)C(=N)N [Creatinol-O-Phosphate, Creatinol-O-phosphate]
Stability by increase in creatinine levels over time (FIG. 1, in words): stable and resistant to decomposition
Stability in aqueous solution (in words): stable
Creatinine in solution (HPLC assay) (pH 3.0, 4° C., 39 Days): 0.00 mg/mL
Creatinine in solution (HPLC assay) (pH 3.0, 4° C., 3 day): 0.0 mg/mL
Creatinine in solution (HPLC assay) (pH 3.0, 4° C., 10 days): 0.0 mg/mL
Creatinine in solution (HPLC assay) (pH 3.0, 4° C., 21 days): 0.0 mg/mL
Creatinine in solution (HPLC assay) (pH 3.0, 4° C., 60 days): 0.00 mg/mL
Creatinine in solution (HPLC assay) (pH 3.0, 4° C., INITIAL): 0.0 mg/mL
Creatinine in solution (HPLC assay) (pH 3.0, 25° C., 39 Days): 0.00 mg/mL
Creatinine in solution (HPLC assay) (pH 3.0, 25° C., 3 day): 0.0 mg/mL
Creatinine in solution (HPLC assay) (pH 3.0, 25° C., 10 days): 0.0 mg/mL
Creatinine in solution (HPLC assay) (pH 3.0, 25° C., 21 days): 0.0 mg/mL
Creatinine in solution (HPLC assay) (pH 3.0, 25° C., 60 days): 0.00 mg/mL
Creatinine in solution (HPLC assay) (pH 3.0, 25° C., INITIAL): 0.0 mg/mL
Creatinine in solution (HPLC assay) (pH 3.0, 40° C., 39 Days): 0.00 mg/mL
Creatinine in solution (HPLC assay) (pH 3.0, 40° C., 3 day): 0.0 mg/mL
Creatinine in solution (HPLC assay) (pH 3.0, 40° C., 10 days): 0.0 mg/mL
Creatinine in solution (HPLC assay) (pH 3.0, 40° C., 21 days): 0.0 mg/mL
Creatinine in solution (HPLC assay) (pH 3.0, 40° C., 60 days): 0.00 mg/mL
Creatinine in solution (HPLC assay) (pH 3.0, 40° C., INITIAL): 0.0 mg/mL
Creatinine in solution (HPLC assay) (pH 7.0, 4° C., 39 Days): 0.00 mg/mL
Creatinine in solution (HPLC assay) (pH 7.0, 4° C., 3 day): 0.0 mg/mL
Creatinine in solution (HPLC assay) (pH 7.0, 4° C., 10 days): 0.0 mg/mL
Creatinine in solution (HPLC assay) (pH 7.0, 4° C., 21 days): 0.0 mg/mL
Creatinine in solution (HPLC assay) (pH 7.0, 4° C., 60 days): 0.00 mg/mL
Creatinine in solution (HPLC assay) (pH 7.0, 4° C., INITIAL): 0.0 mg/mL
Creatinine in solution (HPLC assay) (pH 7.0, 25° C., 39 Days): 0.00 mg/mL
Creatinine in solution (HPLC assay) (pH 7.0, 25° C., 3 day): 0.0 mg/mL
Creatinine in solution (HPLC assay) (pH 7.0, 25° C., 10 days): 0.0 mg/mL
Creatinine in solution (HPLC assay) (pH 7.0, 25° C., 21 days): 0.0 mg/mL
Creatinine in solution (HPLC assay) (pH 7.0, 25° C., 60 days): 0.00 mg/mL
Creatinine in solution (HPLC assay) (pH 7.0, 25° C., INITIAL): 0.0 mg/mL
Creatinine in solution (HPLC assay) (pH 7.0, 40° C., 39 Days): 0.00 mg/mL
Creatinine in solution (HPLC assay) (pH 7.0, 40° C., 3 day): 0.0 mg/mL
Creatinine in solution (HPLC assay) (pH 7.0, 40° C., 10 days): 0.0 mg/mL
Creatinine in solution (HPLC assay) (pH 7.0, 40° C., 21 days): 0.0 mg/mL
Creatinine in solution (HPLC assay) (pH 7.0, 40° C., 60 days): 0.00 mg/mL
Creatinine in solution (HPLC assay) (pH 7.0, 40° C., INITIAL): 0.0 mg/mL
Prepared substance remaining in solution (HPLC assay) (pH 3): 0.247 mg/ml mg/mL
Prepared substance remaining in solution (HPLC assay) (pH 7): 0.226 mg/ml mg/mL
pH of the solution (prepared at pH 3.0, 4° C., 39 Days): 3.1
pH of the solution (prepared at pH 3.0, 4° C., 60 days): 3.1
pH of the solution (prepared at pH 3.0, 4° C., INITIAL): 3.0
pH of the solution [1]: 3.1
pH of the solution [2]: 3.1
pH of the solution [3]: 3.0
pH of the solution [4]: 3.0
pH of the solution [5]: 3.0
pH of the solution [6]: 3.0
pH of the solution (prepared at pH 7.0, 4° C., 39 Days): 5.2
pH of the solution (prepared at pH 7.0, 4° C., 60 days): 5.2
pH of the solution (prepared at pH 7.0, 4° C., INITIAL): 7.0
pH of the solution (prepared at pH 7.0, 25° C., 39 Days): 5.3
pH of the solution (prepared at pH 7.0, 25° C., 60 days): 5.3
pH of the solution (prepared at pH 7.0, 25° C., INITIAL): 7.0
pH of the solution [7]: 5.5
pH of the solution [8]: 5.5
pH of the solution [9]: 7.0
